Results reported in patent publication US20260306639A1, “DEGRADER FOR DECOMPOSING CMET PROTEIN, AND PHARMACEUTICAL COMPOSITION COMPRISING SAME” (INNOCURE THERAPEUTICS, INC., priority 2022, published 2026).
pIC50: −log10 of the molar value.

Key:
[1] = tested on: MKN-45; test: cell viability / antiproliferative activity (WST-8), MKN-45 cells; type: cell-based; conditions: Homo sapiens; MKN-45 gastric cancer cells; 72 hours
Procedure: c-MET overexpressing human gastric cancer cell lines [MKN45] and [SNU638] were cultured in RPMI medium with 10% fetal bovine serum, penicillin (100 U/ml), and streptomycin (100 mg/ml), and c-MET exon 14 skipping mutant human gastric cancer cell lines [Hs746T] were cultured in DMEM media. The c-MET overexpressing human lung cancer cell line EBC-1 was cultured in MEM media with the addition of 10% fetal bovine serum, penicillin (100 U/ml), and streptomycin (100 mg/ml). […] The compound synthesized in accordance with the present invention was prepared with a raw material solution of 10 mM dissolved in DMSO (dimethyl sulfoxide), and was sequentially diluted and processed.
In order to observe the inhibitory activity on cell growth, cells were dispensed in a 96-well plate at a concentration of 5,000 cells/well, and then treated with the compound prepared at various concentrations for 72 hours. The viability of the cells was calculated using GraphicPad Prism 8.0 software by adding 10 ml per well of WST-8 (water soluble tetrazolium salt) sample, which reacts with dehydrogenase present in the electron transport system of mitochondria to produce formazon, incubated for 2 hours, and measured absorbance at 450 nm.

[2] = tested on: c-MET; test: c-MET protein degradation (Simple Western), MKN-45 cells; type: cell-based, human; conditions: MKN-45 gastric cancer cells, c-MET overexpressing; 24 hours
Summary of the method: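 Cells at 2×10^5 cells/well exposed to compound for 24 h (gastric lines) or 48 h (lung lines). Lysates (3 μg protein) probed for c-MET by capillary Simple Western, normalized to GAPDH and expressed as % of 0.1% DMSO control. DC50 is the concentration giving 50% protein reduction.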

[3] = tested on: c-MET; test: c-MET protein degradation (Simple Western), SNU-638 cells; type: cell-based, human; conditions: SNU-638 gastric cancer cells, c-MET overexpressing; 24 hours
Procedure: (§1) In order to assess the resolution of the compound of the present invention for c-MET expressed in cells, cells were dispensed in a 12-well plate at a concentration of 2×10^5 cells/well, and then gastric cancer cell lines were treated with samples for 24 hours and lung cancer cell lines were treated for 48 hours. Cell lysates were collected using a scraper on ice, centrifuged at 4° C. 15,000 rpm for 30 min to obtain a protein-containing supernatant. Protein expression was then measured using the Simple Western Automated Western Blot System Abby instrument using 3 μg of protein for each sample. SDS and heat-induced denaturation proteins were separated by molecular weight, attached to capillary, reacted with anti-c-MET or anti-GAPDH antibodies, which are primary antibodies, and then reacted with HRP-conjugated secondary antibodies, and analyzed the protein expression signal with compass software. Protein expression was normalized based on the expression value of GAPDH, and protein development in each sample was measured as a percentage (%) based on 100% of samples treated with 0.1% DMSO carriers, and DC50 (concentration of a compound where 50% protein inhibition is achieved) was calculated from the change in protein expression amount due to compound treatment.

[4] = tested on: c-MET; test: c-MET protein degradation (Simple Western), EBC-1 cells; type: cell-based, human; conditions: EBC-1 lung cancer cells, c-MET overexpressing; 48 hours
Procedure: as §1

Compound | pIC50 [1] | DC50 [2] [µM] | DC50 [3] [µM] | DC50 [4] [µM]
Cn1cc(-c2cnc3c(nnn3C[C@@H]3CN(c4ncc(-c5ccc(CN6CCN(C(=O)COCCOCCNc7ccc8c(=O)n(C9CCC(=O)NC9=O)ncc8c7)CC6)cc5)cn4)CCO3)n2)cn1 (stereo partly shown) [ICT-0000935] | 6.00 to 7.00 | 0.1 to 1 | – | –
N#Cc1cccc(C2=NC(Cc3cccc(-c4ncc(OCC5CCN(CC(=O)N6CCN(CC7CCN(c8ccc9c(=O)n(C%10C=CC(=O)NC%10=O)ncc9c8)CC7)CC6)CC5)cn4)c3)C(=O)C=C2)c1 (stereo not shown) [ICT-0000975] | > 7.00 | 0.1 to 1 | – | –
Cn1cc(-c2cnc3c(nnn3CC3CN(c4ncc(-c5ccc(CN6CCC(CN7CCN(c8ccc9c(=O)n(C%10CCC(=O)NC%10=O)ncc9c8)CC7)CC6)cc5)cn4)CCO3)n2)cn1 [ICT-0000978, 3-(6-(4-((1-(4-(2-((S)-2-((5-(1-methyl-1H-pyrazole-4-yl)-1H-[1,2,3]triazolo[4,5-b]pyrazine-1-yl)methyl)morpholino)pyrimidine-5-il)benzyl)piperidine-4-il)methyl)piperazine-1-yl)1-oxopthalazine-2(1H)-yl)piperidine-2,6-dione] | > 7.00 | 0.1 to 1 | – | –
Cc1nn(C2CCC(=O)NC2=O)c(=O)c2c(NCC(=O)N3CCC(CN4CCC(COc5cnc(-c6cccc(Cn7nc(-c8cccc(C#N)c8)ccc7=O)c6)nc5)CC4)CC3)cccc12 (stereo not shown) [ICT-0000980] | – | < 0.1 | > 1 | –
Cc1nn(C2CCC(=O)NC2=O)c(=O)c2ccc(NCCOCCOCCOCC(=O)N3CCC(COc4cnc(-c5cccc(Cn6nc(-c7cccc(C#N)c7)ccc6=O)c5)nc4)CC3)cc12 (stereo not shown) [ICT-0001088] | 6.00 to 7.00 | < 0.1 | – | –
Cc1nn(C2CCC(=O)NC2=O)c(=O)c2ccc(NCCOCCOCCOCCOCC(=O)N3CCC(COc4cnc(-c5cccc(Cn6nc(-c7cccc(C#N)c7)ccc6=O)c5)nc4)CC3)cc12 (stereo not shown) [ICT-0001089, 3-(1-(3-(5-((1-(14-((2-(2,6-dioxopiperidine-3-yl)-4-methyl-1-oxo-1,2-dihydrophthalazine-6-yl)amino)3,6,9,12-tetratetradecanoyl)piperidine-4-yl)methoxy)pyrimidin-2-yl)benzyl)6-oxo-1,6-dihydropyridazine-3-yl)benzonitrile] | 6.00 to 7.00 | 0.1 to 1 | – | –
Cc1nn(C2CCC(=O)NC2=O)c(=O)c2cc(N3CCN(C(=O)CN4CCC(COc5cnc(-c6cccc(Cn7nc(-c8cccc(C#N)c8)ccc7=O)c6)nc5)CC4)CC3)ccc12 (stereo not shown) [ICT-0001214, 3-(1-(3-(5-((1-(2-(4-(3-(2,6-dioxopiperidin-3-yl)-1-methyl-4-oxo-3,4-dihydropetalazine-6-yl)piperazine-1-il)acetyl)piperidine-4-il)methoxy)pyrimidine-2-yl)benzyl)6-oxo-1,6-dihydropyridazine-3-yl)benzonitrile] | > 7.00 | < 0.1 | – | –
Cc1nn(C2CCC(=O)NC2=O)c(=O)c2cc(N3CCN(CCCC(=O)N4CCC(COc5cnc(-c6cccc(Cn7nc(-c8cccc(C#N)c8)ccc7=O)c6)nc5)CC4)CC3)ccc12 (stereo not shown) [ICT-0001216, 3-(1-(3-(5-((1-(4-(4-(3-(2,6-dioxopiperidin-3-yl)-1-methyl-4-oxo-3,4-dihydroptalazine-6-yl)piperazine-1-il)butanoyl)piperidine-4-il)methoxy)pyrimidine-2-yl)benzyl)6-oxo-1,6-dihydropyridazine-3-yl)benzonitrile] | > 7.00 | < 0.1 | – | –
Cc1nn(C2CCC(=O)NC2=O)c(=O)c2ccc(N3CCN(C(=O)C4CCN(CC(=O)N5CCC(COc6cnc(-c7cccc(Cn8nc(-c9cccc(C#N)c9)ccc8=O)c7)nc6)CC5)CC4)CC3)cc12 (stereo not shown) [ICT-0001218] | – | < 0.1 | < 0.1 | –
Cc1nn(C2CCC(=O)NC2=O)c(=O)c2cc(N3CCN(CC4CCN(C(=O)CN5CCC(COc6cnc(-c7cccc(Cn8nc(-c9cccc(C#N)c9)ccc8=O)c7)nc6)CC5)CC4)CC3)c(F)cc12 (stereo not shown) [ICT-0001231, 3-(1-(3-(5-((1-(2-(4-(4-(4-(3-(2,6-dioxopiperidine-3-yl)-7-fluoro-1-methyl-4-oxo-3,4-dihydrophthalazine-6-yl)piperazine-1-il)methyl)piperidine-1-il)-2-oxoethyl)piperidine-4-yl)methoxy)pyrimidine-2-yl)benzyl)6-oxo-1,6-dihydropyridazine-3-yl)benzonitrile] | > 7.00 | – | – | –
N#Cc1cccc(-c2ccc(=O)n(Cc3cccc(-c4ncc(OCC5CCN(CC(=O)N6CC(N7CCN(c8ccc9c(=O)n(C%10CCC(=O)NC%10=O)ncc9c8)CC7)C6)CC5)cn4)c3)n2)c1 (stereo not shown) [ICT-0001232] | – | < 0.1 | < 0.1 | < 0.1
Cc1nn(C2CCC(=O)NC2=O)c(=O)c2cc(N3CCN(CCN4CCC(COc5cnc(-c6cccc(Cn7nc(-c8cccc(C#N)c8)ccc7=O)c6)nc5)CC4)CC3)ccc12 (stereo not shown) [ICT-0001278, 3-(1-{[3-(5-{[1-(2-{4-[3-(2,6-dioxopiperidin-3-yl)-1-methyl-4-oxo-3,4-dihydropthalazine-6-yl]piperazine-1-yl}ethyl)piperidine-4-day]methoxy}pyrimidine-2-yl)phenyl]methyl}6-oxo-1,6-dihydropyridazine-3-yl)benzonitrile] | – | 0.1 to 1 | – | > 1
Cc1nn(C2CCC(=O)NC2=O)c(=O)c2ccc(N3CCN(C4CN(CCN5CCC(COc6cnc(-c7cccc(Cn8nc(-c9cccc(C#N)c9)ccc8=O)c7)nc6)CC5)C4)CC3)cc12 (stereo not shown) [ICT-0001325] | – | – | > 1 | –
Cc1nn(C2CCC(=O)NC2=O)c(=O)c2cc(N3CCN(CC4CCN(CCN5CCC(COc6cnc(-c7cccc(Cn8nc(-c9cccc(C#N)c9)ccc8=O)c7)nc6)CC5)CC4)CC3)c(F)cc12 (stereo not shown) [ICT-0001326] | – | – | > 1 | –
N#Cc1cccc(-c2ccc(=O)n(Cc3cccc(-c4ncc(OCC5CCN(c6ccc(NC7CCC(=O)NC7=O)cc6F)CC5)cn4)c3)n2)c1 (stereo not shown) [ICT-0001383] | – | – | < 0.1 | < 0.1
N#Cc1cccc(-c2ccc(=O)n(Cc3cccc(-c4ncc(OCC5CCN(CCN6CCN(c7ccc(NC8CCC(=O)NC8=O)cc7F)CC6)CC5)cn4)c3)n2)c1 (stereo not shown) [ICT-0001433, 3-(1-(3-(5-((1-(1-(2-(4-((2,6-dioxopiperidine-3-yl)amino)-2-fluorophenyl)piperazine-1-il)ethyl)piperidine-4-il)methoxy)pyrimidine-2-yl)benzyl)6-oxo-1,6-dihydropyridazine-3-yl)benzonitrile] | – | – | < 0.1 | < 0.1
N#Cc1cccc(-c2ccc(=O)n(Cc3cccc(-c4ncc(-c5cccc(CN6CCN(c7ccc(NC8CCC(=O)NC8=O)cc7F)CC6)c5)cn4)c3)n2)c1 (stereo not shown) [ICT-0001434] | – | – | > 1 | < 0.1
Cn1cc(-c2cnc3c(nnn3C[C@@H]3CN(c4ncc(-c5ccc(CN6CCN(CC(=O)N7CCN(c8ccc(NC9CCC(=O)NC9=O)cc8F)CC7)CC6)cc5)cn4)CCO3)n2)cn1 (stereo partly shown) [ICT-0001439] | – | – | < 0.1 | < 0.1
N#Cc1cccc(-c2ccc(=O)n(Cc3cccc(-c4ncc(-c5cccc(CN6CCN(c7ccc(C8CCC(=O)NC8=O)cn7)CC6)c5)cn4)c3)n2)c1 (stereo not shown) [ICT-0001449] | – | – | > 1 | < 0.1
N#Cc1cccc(-c2ccc(=O)n(Cc3cccc(-c4ncc(-c5cccc(CN6CCC(CN7CCN(c8ccc(NC9CCC(=O)NC9=O)cc8F)CC7)CC6)c5)cn4)c3)n2)c1 (stereo not shown) [ICT-0001450] | – | – | 0.1 to 1 | < 0.1
N#Cc1cccc(-c2ccc(=O)n(Cc3cccc(-c4ncc(OCC5CCN(C(=O)CN6CCN(c7ccc(NC8CCC(=O)NC8=O)cc7F)CC6)CC5)cn4)c3)n2)c1 (stereo not shown) [ICT-0001494] | – | – | < 0.1 | < 0.1
